Assay results reported in US6048712A, “Process for producing α-monoglucosyl hesperidin-rich substance” (Kabushiki Kaisha Hayashibara, priority 1997, dated 2000).

Tests used:
[1] = Dissolution and crystallization behaviour in lower alcohols; assay type: physicochemical; settings: heated lower alcohols, then cooled below ambient temperature, for example 15-25° C.
[2] = cited from earlier work
[3] = cited from earlier work; remark: listed apart in the source

Compound: COc1ccc(C2CC(=O)c3c(O)cc(O[C@@H]4O[C@H](CO[C@@H]5O[C@@H](C)[C@H](O)[C@@H](O)[C@H]5O)[C@@H](O[C@H]5O[C@H](CO)[C@@H](O)[C@H](O)[C@H]5O)[C@H](O)[C@H]4O)cc3O2)cc1O (stereo partly drawn) [α-monoglucosyl hesperidin]
- solubility and crystallization in lower alcohols [1]: easily dissolves in heated lower alcohols but easily crystallizes therein when the alcohols are cooled down to temperatures below ambient temperature

Compound: COc1ccc([C@@H]2CC(=O)c3c(O)cc(O)cc3O2)cc1O [hesperetin, 3',5,7-trihydroxy-4'-metoxyflavanone]
- water solubility [2]: substantially water-insoluble

Compound: COc1ccc(C2CC(=O)c3c(O)cc(O[C@@H]4O[C@H](CO)[C@@H](O)[C@H](O)[C@H]4O)cc3O2)cc1O (stereo partly drawn) [β-monoglucosyl hesperetin, 7-O-β-monoglucosyl hesperetin]
- solubility and crystallization in lower alcohols [1]: easily dissolves in lower alcohols and does not substantially crystallize even when the alcohols are cooled down to temperatures below ambient temperature

Compound: COc1ccc([C@@H]2CC(=O)c3c(O)cc(O[C@@H]4O[C@H](CO[C@@H]5O[C@@H](C)[C@H](O)[C@@H](O)[C@H]5O)[C@@H](O)[C@H](O)[C@H]4O)cc3O2)cc1O [Hesperidin]
- solubility in water ([3]; ambient temperature, about one gram in 50 1 water): about 0.002 w/v %
- solubility in words ([3]; aqueous alkaline solutions, water and acids): dissolves in aqueous alkaline solutions but not substantially in water and acids
